Measurements published in US20230348444A1, “NOVEL COMPOUNDS FOR USE IN THE TREATMENT OF DISEASES ASSOCIATED WITH ANGIOTENSIN II” (Vicore Pharma AB, priority 2020, published 2023).
Where two headings read alike, the source gives them in different places.

Tests used:
[1] = biological target: T1, human recombinant AT1 receptor (Homo sapiens, UniProt P30556); assay: biochemical
T1 sequence (P30556 1-359): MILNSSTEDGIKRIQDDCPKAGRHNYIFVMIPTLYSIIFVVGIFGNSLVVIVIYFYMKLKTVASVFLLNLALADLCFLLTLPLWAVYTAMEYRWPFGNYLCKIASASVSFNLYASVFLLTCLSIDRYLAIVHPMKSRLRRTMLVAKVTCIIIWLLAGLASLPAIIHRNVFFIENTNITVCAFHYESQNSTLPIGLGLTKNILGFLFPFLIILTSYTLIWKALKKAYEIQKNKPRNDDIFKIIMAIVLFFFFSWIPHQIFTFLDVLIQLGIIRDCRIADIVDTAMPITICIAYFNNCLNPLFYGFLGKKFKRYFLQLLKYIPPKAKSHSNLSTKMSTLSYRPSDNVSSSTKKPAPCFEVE
Description: (§3) Compounds were evaluated for binding to the human recombinant AT2 and AT1 receptor according to Eurofins protocol ITEM26 and ITEM24 using a radiometric scintillation assay.

[2] = biological target: T2, human recombinant AT2 receptor (Homo sapiens, UniProt P50052); assay: biochemical
T2 sequence (P50052 1-363): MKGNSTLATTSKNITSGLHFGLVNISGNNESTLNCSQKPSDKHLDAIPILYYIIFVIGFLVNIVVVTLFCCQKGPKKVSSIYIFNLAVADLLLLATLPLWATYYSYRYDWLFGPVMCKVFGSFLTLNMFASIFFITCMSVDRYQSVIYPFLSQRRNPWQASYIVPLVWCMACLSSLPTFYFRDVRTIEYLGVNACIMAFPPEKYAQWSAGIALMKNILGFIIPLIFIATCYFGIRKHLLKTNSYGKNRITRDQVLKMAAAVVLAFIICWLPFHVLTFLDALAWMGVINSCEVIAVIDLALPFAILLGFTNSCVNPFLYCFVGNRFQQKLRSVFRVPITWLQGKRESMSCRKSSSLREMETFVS
Description: as §3

[3] = biological target: CYP2C9 (Homo sapiens, UniProt P11712); assay: CYP inhibition of C21 found during development; type: in vitro ADME; conditions: statement in words
CYP2C9, sequence (P11712 whole entry): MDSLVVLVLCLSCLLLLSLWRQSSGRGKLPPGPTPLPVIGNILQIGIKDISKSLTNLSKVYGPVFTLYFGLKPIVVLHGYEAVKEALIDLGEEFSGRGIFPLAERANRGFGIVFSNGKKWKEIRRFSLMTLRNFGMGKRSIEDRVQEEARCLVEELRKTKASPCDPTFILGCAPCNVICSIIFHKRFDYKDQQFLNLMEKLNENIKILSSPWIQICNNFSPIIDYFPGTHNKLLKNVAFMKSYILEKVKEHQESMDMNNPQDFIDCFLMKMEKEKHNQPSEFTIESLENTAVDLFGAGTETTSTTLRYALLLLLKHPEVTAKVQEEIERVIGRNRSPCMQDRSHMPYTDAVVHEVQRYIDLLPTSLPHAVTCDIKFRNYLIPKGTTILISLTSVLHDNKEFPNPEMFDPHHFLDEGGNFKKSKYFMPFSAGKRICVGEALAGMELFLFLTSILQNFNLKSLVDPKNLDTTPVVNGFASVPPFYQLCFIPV

[4] = Metabolic hydrolysis of C21 found during development; type: in vitro ADME; conditions: statement in words
[5] = biological target: T3, CYP2C8 (Homo sapiens, UniProt P10632); assay: CYP inhibition in human liver microsomes (Eurofins protocol ITEMG232); type: in vitro ADME; conditions: 10 μM, substrates paclitaxel and amodiaquine
T3 construct: using isoform-specific substrates incubated with human liver microsomes; tissue Eurofins ITEMG232; host or cells: human liver microsomes
T3 sequence (P10632 1-490): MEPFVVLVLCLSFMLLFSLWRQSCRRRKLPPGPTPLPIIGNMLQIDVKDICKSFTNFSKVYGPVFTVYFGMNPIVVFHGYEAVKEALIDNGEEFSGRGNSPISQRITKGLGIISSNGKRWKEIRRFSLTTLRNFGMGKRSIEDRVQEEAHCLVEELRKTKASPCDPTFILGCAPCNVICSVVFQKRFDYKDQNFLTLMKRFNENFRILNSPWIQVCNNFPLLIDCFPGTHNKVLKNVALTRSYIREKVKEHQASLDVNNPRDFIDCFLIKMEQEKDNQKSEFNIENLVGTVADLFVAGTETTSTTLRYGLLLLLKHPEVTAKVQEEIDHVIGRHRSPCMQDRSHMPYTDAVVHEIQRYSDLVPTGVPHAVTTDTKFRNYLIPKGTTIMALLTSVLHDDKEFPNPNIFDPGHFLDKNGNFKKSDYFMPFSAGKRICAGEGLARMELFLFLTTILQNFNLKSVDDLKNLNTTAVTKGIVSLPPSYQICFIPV
Description: (§1) The following substrates were used; CYP1A phenacetin, CYP2B6 bupropion, CYP2C8 paclitaxel and amodiaquine, CYP2C9 diclofenac, CYP2C19 omeprazole, CYP2D6 dextromethorphan, CYP3A midazolam and testosterone.
(§2) At the end of the incubation, the formation of metabolite was monitored by HPLC-MS/MS as the peak area response.

[6] = biological target: T4, CYP2B6 (Homo sapiens, UniProt P20813); assay: as above; type: in vitro ADME; conditions: 10 μM, substrate bupropion
T4 construct: using isoform-specific substrates incubated with human liver microsomes; tissue Eurofins ITEMG232; host or cells: human liver microsomes
T4 sequence (P20813 1-491): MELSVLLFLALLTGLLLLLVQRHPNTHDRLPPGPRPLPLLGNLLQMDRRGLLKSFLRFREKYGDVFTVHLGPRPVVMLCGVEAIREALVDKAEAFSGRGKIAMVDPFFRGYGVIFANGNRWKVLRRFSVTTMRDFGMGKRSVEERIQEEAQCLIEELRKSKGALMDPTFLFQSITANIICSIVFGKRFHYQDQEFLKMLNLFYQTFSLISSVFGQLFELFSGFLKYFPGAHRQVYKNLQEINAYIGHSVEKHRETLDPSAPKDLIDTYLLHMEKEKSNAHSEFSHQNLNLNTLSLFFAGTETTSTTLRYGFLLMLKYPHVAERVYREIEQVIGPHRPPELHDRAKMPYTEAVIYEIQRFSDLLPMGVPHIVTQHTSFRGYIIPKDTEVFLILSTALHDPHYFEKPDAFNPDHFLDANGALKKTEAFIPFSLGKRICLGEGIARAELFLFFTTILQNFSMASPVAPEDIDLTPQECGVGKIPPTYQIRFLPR
Description: as §1, §2

[7] = biological target: T5, CYP2D6 (Homo sapiens, UniProt P10635); assay: as above; type: in vitro ADME; conditions: 10 μM, substrate dextromethorphan
T5 construct: tissue Eurofins ITEMG232; host or cells: human liver microsomes
T5 sequence (P10635 whole entry): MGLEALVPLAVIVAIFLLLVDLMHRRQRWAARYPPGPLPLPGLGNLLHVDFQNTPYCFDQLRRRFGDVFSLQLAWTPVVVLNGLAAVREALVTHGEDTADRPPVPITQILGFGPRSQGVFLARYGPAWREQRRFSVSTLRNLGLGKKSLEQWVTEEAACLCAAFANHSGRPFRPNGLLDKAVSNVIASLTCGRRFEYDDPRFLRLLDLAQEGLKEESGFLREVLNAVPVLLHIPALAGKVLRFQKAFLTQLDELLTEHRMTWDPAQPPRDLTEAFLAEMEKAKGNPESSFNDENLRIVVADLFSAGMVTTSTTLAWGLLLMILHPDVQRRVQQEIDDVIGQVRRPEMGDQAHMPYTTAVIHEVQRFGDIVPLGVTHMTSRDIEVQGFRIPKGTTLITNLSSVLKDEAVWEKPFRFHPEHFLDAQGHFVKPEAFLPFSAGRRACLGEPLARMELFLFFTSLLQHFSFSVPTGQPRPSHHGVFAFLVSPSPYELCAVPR
Description: as §1, §2

[8] = biological target: T6, CYP1A (Homo sapiens, UniProt P05177); assay: as above; type: in vitro ADME; conditions: 10 μM, substrate phenacetin
T6 construct: using isoform-specific substrates incubated with human liver microsomes; tissue Eurofins ITEMG232; host or cells: human liver microsomes
T6 sequence (P05177 2-516 limits assumed): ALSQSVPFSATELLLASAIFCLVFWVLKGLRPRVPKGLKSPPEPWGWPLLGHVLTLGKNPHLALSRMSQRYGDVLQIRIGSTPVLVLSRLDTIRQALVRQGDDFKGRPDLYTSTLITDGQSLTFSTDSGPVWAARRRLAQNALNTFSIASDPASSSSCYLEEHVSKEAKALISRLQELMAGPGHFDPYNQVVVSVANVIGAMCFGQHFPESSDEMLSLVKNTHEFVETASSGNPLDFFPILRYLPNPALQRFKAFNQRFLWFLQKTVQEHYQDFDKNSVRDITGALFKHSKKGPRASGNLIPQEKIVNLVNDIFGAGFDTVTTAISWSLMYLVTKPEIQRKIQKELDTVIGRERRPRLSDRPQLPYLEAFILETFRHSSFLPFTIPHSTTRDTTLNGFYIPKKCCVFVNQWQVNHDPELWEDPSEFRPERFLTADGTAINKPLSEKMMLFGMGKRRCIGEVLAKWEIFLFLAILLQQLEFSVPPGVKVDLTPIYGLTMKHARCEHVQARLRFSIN
Description: as §1, §2

[9] = test system: CYP3A4&5; assay: CYP inhibition in human liver microsomes (Eurofins protocol ITEMG232), testosterone substrate; type: in vitro ADME; conditions: probe testosterone, read-out: CYP3A4&5 testosterone Inh %
Description: as §1, §2

[10] = biological target: T7, CYP3A4 (Homo sapiens, UniProt P08684); assay: CYP inhibition in human liver microsomes (Eurofins protocol ITEMG232), midazolam substrate; type: in vitro ADME; set-up: using isoform-specific substrates incubated with human liver microsomes; tissue Eurofins ITEMG232; host or cells: human liver microsomes; conditions: 10 μM
T7 sequence (P08684 whole entry, canonical isoform): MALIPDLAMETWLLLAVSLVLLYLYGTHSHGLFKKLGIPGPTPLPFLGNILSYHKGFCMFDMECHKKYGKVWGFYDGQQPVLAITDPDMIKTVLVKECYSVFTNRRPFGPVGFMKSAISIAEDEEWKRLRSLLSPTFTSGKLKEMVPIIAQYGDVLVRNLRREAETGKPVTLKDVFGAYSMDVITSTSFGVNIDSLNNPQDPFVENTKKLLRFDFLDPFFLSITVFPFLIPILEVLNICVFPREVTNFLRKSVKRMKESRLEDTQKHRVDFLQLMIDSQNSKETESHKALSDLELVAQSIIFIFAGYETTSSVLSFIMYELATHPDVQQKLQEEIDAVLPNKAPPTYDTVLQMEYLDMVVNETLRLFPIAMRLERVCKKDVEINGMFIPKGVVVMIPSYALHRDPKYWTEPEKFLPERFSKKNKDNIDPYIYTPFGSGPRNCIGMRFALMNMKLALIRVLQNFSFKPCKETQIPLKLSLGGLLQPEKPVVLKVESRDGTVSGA
Description: as §1, §2

[11] = Metabolic stability in pooled human liver microsomes with or without NADPH; type: in vitro ADME; conditions: human, pooled human liver microsomes, pooled human liver microsomes 0.5 mg/mL in PBS, 1 uM test compound, 37° C.
Description: Pooled human liver microsomes in PBS at a concentration of 0.5 mg/mL was incubated with or without 1 mM NADPH for 70 min at 37° C. Test compound was added after 10 minutes to a final concentration of 1 uM. Samples were withdrawn at 0, 5, 15 and 60 minutes and added to test tubes containing acetonitrile, to stop the reaction, and with terfenadine, used as internal standard. After centrifugation at 10000×g for 5 minutes the supernatant was diluted 1:1 with 1% formic acid. Samples were separated on a reverse phase column and detected by triple quadrupole MSMS (Agilant model 6540). The concentration of the parent compound at the different time points was measured with an external standard curve using terfenadine as internal standard and the initial metabolic rate in the presence or absence of NADPH calculated.

[12] = biological target: T7, CYP3A4; assay: CYP inhibition of C21 found during development; type: in vitro ADME; conditions: statement in words

IC50 [1] | IC50 [2] | inhibition of CYP 2C9 [3] | hydrolysis to an inactive sulfonamide metabolite [4] | CYP2C8 Inh % [5] | CYP2B6 Inh % [6] | CYP2D6 Inh % [7] | CYP1A Inh % [8] | inhibition at 10 µM [9] | CYP3A4 midazolam Inh % [10] | half-life at 1 uM ([11]; with 1 mM NADPH, read-out: T1/2, +NaDPH) | half-life at 1 uM ([11]; without NADPH, read-out: T1/2, no NaDPH) | inhibition of CYP 3A4 [12] | SMILES
> 1000 nM | 3.4 nM | – | – | – | – | – | – | – | – | – | – | – | Cc1nccn1Cc1ccc(-c2cc(CC(C)C)sc2S(=O)(=O)NC(=O)OCCOc2ccccc2)cc1F [Example 9, 2-Phenoxyethyl (3-(3-fluoro-4-((2-methylimidazol-1-yl)methyl]phenyl)-5-isobutyl-2-thienyl)sulfonylcarbamate]
– | – | potent inhibitor | rapidly hydrolysed | 80% | 49% | 81% | 91% | 94% | 95% | 35 min | 31 min | potent inhibitor | CCCCOC(=O)NS(=O)(=O)c1sc(CC(C)C)cc1-c1ccc(Cn2ccnc2)cc1 [Example C21, N-butyloxycarbonyl-3-(4-imidazol-1-ylmethylphenyl)-5-isobutylthiophene-2-sulfon-amide, reference compound]
